# Active and inactive are the calls of the source.
# How the values were obtained:
# Cytochrome P450 2C19 = Cytochrome P450 2C19 (Homo sapiens, UniProt P33261); assay: Cytochrome panel assay with activity outcomes. Panel member name: p450-cyp2c19 Compounds with AC50 equal or less than 10 uM are considered active; format: functional
# Cytochrome P450 1A2 = target: T1, Cytochrome P450 1A2 (Homo sapiens, UniProt P05177);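 further: PubChem cytochrome P450 panel assay, CYP1A2 panel member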
# T1 sequence (P05177 whole entry): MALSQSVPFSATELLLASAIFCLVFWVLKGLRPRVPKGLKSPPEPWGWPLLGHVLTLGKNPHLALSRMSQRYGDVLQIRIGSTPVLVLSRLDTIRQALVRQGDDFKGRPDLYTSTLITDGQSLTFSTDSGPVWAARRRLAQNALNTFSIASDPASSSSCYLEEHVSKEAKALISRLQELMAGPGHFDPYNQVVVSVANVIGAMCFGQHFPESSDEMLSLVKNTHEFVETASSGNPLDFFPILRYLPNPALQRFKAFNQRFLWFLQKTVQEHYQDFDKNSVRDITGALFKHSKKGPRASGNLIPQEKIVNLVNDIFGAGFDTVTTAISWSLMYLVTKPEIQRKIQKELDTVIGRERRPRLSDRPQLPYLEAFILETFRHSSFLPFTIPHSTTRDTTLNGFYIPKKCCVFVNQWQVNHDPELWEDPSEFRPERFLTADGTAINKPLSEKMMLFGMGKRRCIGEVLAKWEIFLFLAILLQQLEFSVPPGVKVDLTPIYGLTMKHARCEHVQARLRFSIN
# [1] = target: T2, Corticotropin-releasing factor receptor 2/Corticotropin-releasing factor-binding protein (Homo sapiens, UniProt P24387+Q13324); assay: activators of CRF receptor 2 with binding protein – uHTS hits, confirmation (AID 602473); format: functional; settings: read-out: EC50_Mean
# T2 sequence (Q13324 whole entry): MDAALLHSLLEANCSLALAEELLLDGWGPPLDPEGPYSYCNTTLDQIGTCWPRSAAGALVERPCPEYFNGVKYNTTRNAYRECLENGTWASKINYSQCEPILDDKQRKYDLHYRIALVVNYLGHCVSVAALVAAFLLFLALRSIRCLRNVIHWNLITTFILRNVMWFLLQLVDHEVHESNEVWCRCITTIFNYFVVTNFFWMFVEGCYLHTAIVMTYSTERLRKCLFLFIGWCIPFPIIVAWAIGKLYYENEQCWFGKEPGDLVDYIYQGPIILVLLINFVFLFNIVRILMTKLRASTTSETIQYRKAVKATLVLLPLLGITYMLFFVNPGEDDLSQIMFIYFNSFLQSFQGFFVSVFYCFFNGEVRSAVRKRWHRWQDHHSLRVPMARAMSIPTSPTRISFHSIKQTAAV
# T2 sequence (P24387 whole entry): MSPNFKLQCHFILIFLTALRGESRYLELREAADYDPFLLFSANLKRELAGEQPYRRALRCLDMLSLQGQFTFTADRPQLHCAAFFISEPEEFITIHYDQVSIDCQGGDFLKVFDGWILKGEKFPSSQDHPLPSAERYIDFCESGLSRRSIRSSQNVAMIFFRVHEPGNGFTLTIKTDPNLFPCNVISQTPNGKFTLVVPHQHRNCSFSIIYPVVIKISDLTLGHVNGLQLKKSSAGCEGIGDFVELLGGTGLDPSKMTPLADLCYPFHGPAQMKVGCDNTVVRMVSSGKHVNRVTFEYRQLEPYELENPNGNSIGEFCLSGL
# [2] = target: T3, RNA-binding protein pos-1 (Caenorhabditis elegans, UniProt G5EF15); assay: inhibitors of POS-1/mex-3 RNA binding, dose response, biochemical, fluorescence polarization (AID 1964);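 further: purified POS-1 fused to maltose binding protein made in E. coli; potency of compounds blocking POS-1 binding to fluorescent RNA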
# T3 sequence (G5EF15 whole entry): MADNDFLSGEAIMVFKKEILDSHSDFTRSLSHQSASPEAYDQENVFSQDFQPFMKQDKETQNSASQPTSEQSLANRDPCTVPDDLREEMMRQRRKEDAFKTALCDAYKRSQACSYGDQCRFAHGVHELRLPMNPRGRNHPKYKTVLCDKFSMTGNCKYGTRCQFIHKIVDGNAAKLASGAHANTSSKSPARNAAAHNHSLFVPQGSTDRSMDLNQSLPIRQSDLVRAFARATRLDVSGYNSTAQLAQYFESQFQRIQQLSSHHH
# [3] = target: T4, Zinc finger protein mex-5 (Caenorhabditis elegans, UniProt Q9XUB2); assay: MEX-5/TCR-2 RNA interaction inhibitors, dose response, biochemical, C. elegans, fluorescence polarization (AID 1960)
# T4 sequence (Q9XUB2 whole entry): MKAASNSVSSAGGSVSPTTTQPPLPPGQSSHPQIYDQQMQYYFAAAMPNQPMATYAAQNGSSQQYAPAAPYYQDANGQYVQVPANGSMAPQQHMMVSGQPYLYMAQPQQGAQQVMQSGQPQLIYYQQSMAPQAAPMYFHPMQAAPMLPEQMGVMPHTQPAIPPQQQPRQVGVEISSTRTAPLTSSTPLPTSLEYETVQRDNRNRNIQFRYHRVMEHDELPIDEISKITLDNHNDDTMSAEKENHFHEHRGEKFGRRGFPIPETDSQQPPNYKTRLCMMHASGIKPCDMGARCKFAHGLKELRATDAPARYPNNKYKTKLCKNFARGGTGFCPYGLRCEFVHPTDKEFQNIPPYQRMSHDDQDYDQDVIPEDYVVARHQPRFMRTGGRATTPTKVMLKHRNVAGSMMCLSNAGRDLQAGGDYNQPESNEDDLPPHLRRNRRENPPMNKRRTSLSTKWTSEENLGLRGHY
# [4] = target: T5, Heat shock factor protein 1 (Mus musculus, UniProt P38532); assay: inhibition of MG132-induced HSE-luciferase signal, confirmation, cell-based, NIH3T3, luminescence, dose retest (AID 2382); format: functional;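 further: NIH3T3 fibroblasts with HSF1-driven luciferase reporter stressed by proteasome inhibitor MG132; luminescence from HSF1-driven luciferase expression after 8 hours of MG132 stress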
# T5 sequence (P38532 whole entry): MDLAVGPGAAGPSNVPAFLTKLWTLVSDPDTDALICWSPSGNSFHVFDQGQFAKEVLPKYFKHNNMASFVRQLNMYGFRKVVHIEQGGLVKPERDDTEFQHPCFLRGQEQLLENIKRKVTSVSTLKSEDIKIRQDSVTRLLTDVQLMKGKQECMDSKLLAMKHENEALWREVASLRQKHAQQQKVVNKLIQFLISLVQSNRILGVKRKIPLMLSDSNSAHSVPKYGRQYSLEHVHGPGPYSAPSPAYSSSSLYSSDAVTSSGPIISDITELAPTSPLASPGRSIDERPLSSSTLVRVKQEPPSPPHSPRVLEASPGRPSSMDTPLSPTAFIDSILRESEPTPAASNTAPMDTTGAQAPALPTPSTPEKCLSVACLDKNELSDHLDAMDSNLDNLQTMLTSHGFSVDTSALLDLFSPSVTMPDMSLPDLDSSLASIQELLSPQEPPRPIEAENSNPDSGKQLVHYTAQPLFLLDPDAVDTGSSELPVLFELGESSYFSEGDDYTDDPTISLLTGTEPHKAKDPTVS
# Cytochrome P450 2C9 = Cytochrome P450 2C9 (Homo sapiens, UniProt P11712)
# INS1 = assay: beta cell apoptosis inhibitors, cytokine rescue, dose response, luminescence, retest (AID 449756); format: functional, cell-based; settings: Rattus norvegicus;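 further: cell death triggered by IL-1 beta plus TNF-alpha plus IFN-gamma mixture; protective hits raise ATP signal compared with cytokine alone wells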
# Sequence of Cytochrome P450 2C9 (P11712 whole entry): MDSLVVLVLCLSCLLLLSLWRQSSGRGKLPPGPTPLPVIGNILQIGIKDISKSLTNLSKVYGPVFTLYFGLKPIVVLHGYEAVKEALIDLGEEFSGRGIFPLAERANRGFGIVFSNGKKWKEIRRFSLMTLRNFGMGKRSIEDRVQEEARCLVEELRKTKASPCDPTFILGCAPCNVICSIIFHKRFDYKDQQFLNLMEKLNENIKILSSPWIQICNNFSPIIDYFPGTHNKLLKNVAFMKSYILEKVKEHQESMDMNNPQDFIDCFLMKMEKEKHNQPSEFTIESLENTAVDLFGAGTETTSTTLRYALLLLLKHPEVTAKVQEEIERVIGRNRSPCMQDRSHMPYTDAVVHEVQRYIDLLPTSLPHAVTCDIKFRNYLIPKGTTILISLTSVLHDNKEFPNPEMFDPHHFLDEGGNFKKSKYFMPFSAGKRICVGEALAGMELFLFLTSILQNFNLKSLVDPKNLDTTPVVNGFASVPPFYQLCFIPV
# Sequence of Cytochrome P450 2C19 (P33261 whole entry): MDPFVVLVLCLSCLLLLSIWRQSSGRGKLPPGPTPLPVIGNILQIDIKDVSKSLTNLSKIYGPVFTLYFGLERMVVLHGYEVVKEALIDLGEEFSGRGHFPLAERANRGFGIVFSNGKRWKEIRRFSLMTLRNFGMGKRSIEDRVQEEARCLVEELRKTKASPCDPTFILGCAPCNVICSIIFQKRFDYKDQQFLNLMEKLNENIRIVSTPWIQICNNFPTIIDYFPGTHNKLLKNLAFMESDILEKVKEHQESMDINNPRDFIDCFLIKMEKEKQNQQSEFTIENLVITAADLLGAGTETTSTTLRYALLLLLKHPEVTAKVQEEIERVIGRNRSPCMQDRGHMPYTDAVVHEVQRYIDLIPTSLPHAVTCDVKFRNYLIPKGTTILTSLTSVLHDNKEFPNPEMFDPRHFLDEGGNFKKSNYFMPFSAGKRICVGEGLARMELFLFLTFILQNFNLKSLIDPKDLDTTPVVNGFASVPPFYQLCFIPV
smiles,measurement,setting,value
O=C(O)[C@H]1[C@H]2CN[C@H](C(=O)O)[C@H]21,AC50,Cytochrome P450 2C19; read-out: AC50,31.6 µM (inconclusive)
same,AC50,Cytochrome P450 1A2,31.6 µM (inconclusive)
CC(=O)Nc1ccccc1Sc1ccc2c3c(cccc13)C(=O)N(c1ccc(C)cc1)C2=O,EC50,[1],> 53 µM (inactive)
S=C(Nc1ccccc1)N1CCCCC1,AC50,Cytochrome P450 2C19; read-out: AC50,17.8 µM (inconclusive)
same,AC50,Cytochrome P450 1A2,22.4 µM (inconclusive)
Cc1cc(/C=C2\SC(=O)N(C)C2=O)c(C)n1-c1cccc(C(=O)O)c1,EC50,[2],> 300 µM (not active)
same,EC50,[3],> 300 µM (not active)
CCN(CC)C(=O)CSc1nnc(-c2cc3ccccc3cc2O)n1CC,AC50,Cytochrome P450 2C19; read-out: AC50,15.8 µM (inconclusive)
CCOC(=O)c1ccc(NC(=O)Oc2ccccc2)cc1,EC50,[4],> 195 µM (not active)
O=C(CSc1nnc(CNc2ccccc2)o1)N1CCCc2ccccc21,AC50,Cytochrome P450 2C9,15.8 µM (inconclusive)
NCc1ccccc1.O=C(O)NCc1ccccc1,AC50,Cytochrome P450 2C19; read-out: AC50,2.51 µM (inconclusive)
same,AC50,Cytochrome P450 2C9,3.98 µM (inconclusive)
CC(C)(NC(=O)c1cc(Cl)c2ccccc2c1O)C(=O)O,EC50,[4],14.1 µM (active)
Cc1cc(C)nc(NC(=O)COc2cc(Cl)cc(Cl)c2)n1,EC50,[4],71.9 µM (active)
O=C1CCC(c2ccccc2)(c2ccccc2)CC1,AC50,Cytochrome P450 2C9,6.31 µM (inconclusive)
CCNc1nnc(-c2ccncc2)s1,AC50,Cytochrome P450 1A2,15.8 µM (inconclusive)
same,AC50,Cytochrome P450 2C9,17.8 µM (inconclusive)
O=C(/C=C\c1ccc2c(c1)OCO2)c1ccc(F)cc1,AC50,Cytochrome P450 2C9,1.58 µM (inconclusive)
CC(NC(=O)CSc1nc(=O)cc(N)n1CCc1ccccc1)c1ccccc1 (stereo not given),AC50,Cytochrome P450 2C19; read-out: AC50,14.1 µM (inconclusive)
O=c1oc2c(Cl)cc(Cl)cc2cc1-c1nnc(Nc2ccccc2F)s1,AC50,Cytochrome P450 1A2,15.8 µM (inconclusive)
CCOC(=O)N1CCN(C(S)=Nc2ccc(C)cc2C)CC1,EC50,[4],> 195 µM (not active)
CCOc1ccc(-n2c(N)c(C(=O)NCc3cccnc3)sc2=S)cc1,AC50,Cytochrome P450 2C19; read-out: AC50,8.91 µM (inconclusive)
same,AC50,Cytochrome P450 2C9,3.55 µM (inconclusive)
CCCCNC(=O)CCC(=O)Nc1ccc2nc(N3CCOCC3)cc(C)c2c1,AC50,Cytochrome P450 2C9,17.8 µM (inconclusive)
COC(=O)c1cccc(C(=O)Nc2ccc(C)cc2)n1,AC50,Cytochrome P450 2C9,6.31 µM (inconclusive)
COCCn1c(=O)c(C)nc2cncnc21,AC50,Cytochrome P450 2C19; read-out: AC50,39.8 µM (inconclusive)
same,AC50,Cytochrome P450 1A2,15.8 µM (inconclusive)
same,AC50,Cytochrome P450 2C9,31.6 µM (inconclusive)
O=C(O)CSc1nc(-c2ccccc2)nc2c1oc1ccccc12,EC50,[4],> 195 µM (not active)
CN1C(=O)/C(=C/c2ccc3c(c2)OCO3)N=C1c1ccccc1,EC50,[2],> 300 µM (not active)
same,EC50,[3],75.1 µM (inconclusive)
Cc1ccc(NC(=O)CSc2nccc(=O)[nH]2)c(S(=O)(=O)N2CCOCC2)c1,EC50,[2],> 300 µM (not active)
same,EC50,[3],> 300 µM (not active)
COc1ccccc1C(c1nnnn1C(C)(C)C)N1CCN(Cc2ccncc2)CC1 (stereo not given),AC50,Cytochrome P450 1A2,25.1 µM (inconclusive)
Cc1cc([N+](=O)[O-])nn1CC(=O)NNC(=S)Nc1ccc([N+](=O)[O-])cc1,EC50,[2],28.3 µM (active)
same,EC50,[3],5.47 µM (active)
CC(=O)OCC(=O)[C@@]1(O)[C@H](C)C[C@@H]2[C@H]3CCC4=CC(=O)C=C[C@]4(C)[C@]3(F)[C@@H](O)C[C@@]21C,AC50,Cytochrome P450 2C9,6.31 µM (inconclusive)
CCC1CC2CC(NC(C)=O)C1C2 (stereo not given),AC50,Cytochrome P450 2C19; read-out: AC50,20 µM (inconclusive)
same,AC50,Cytochrome P450 2C9,7.08 µM (inconclusive)
COc1cccc(-c2nnc3sc(-c4ccc(C)cc4)nn23)c1,AC50,Cytochrome P450 2C19; read-out: AC50,6.31 µM (inconclusive)
CCOC(=O)C1=NOC2C3CC(C12)C1C(=O)N(CCc2ccc(OC)c(OC)c2)C(=O)C31 (stereo not given),EC50,[4],> 195 µM (not active)
O=C1C2CC=C(Cl)CC2C(=O)N1CCc1ccccc1 (stereo not given),EC50,[2],29.4 µM (active)
same,EC50,[3],20.6 µM (active)
CCN1CCCC1CNC(=O)CSCc1nc(-c2ccccc2C)oc1C (stereo not given),AC50,Cytochrome P450 2C19; read-out: AC50,28.2 µM (inconclusive)
same,AC50,Cytochrome P450 1A2,39.8 µM (inconclusive)
Cc1cc(S(=O)(=O)N2CCN=C2c2ccccc2)c(C)cc1Cl,EC50,[4],> 195 µM (not active)
COC(=O)C1=CN(c2ccc(F)c(F)c2)C=C(C(=O)OC)C1c1ccc([N+](=O)[O-])cc1,EC50,[4],> 195 µM (not active)
O=C(CC1Nc2ccccc2NC1=O)c1ccccc1 (stereo not given),EC50,[2],30.6 µM (active)
same,EC50,[3],103 µM (active)
CCCOc1ccc(NC(N)=O)cc1OCCC,EC50,[4],> 195 µM (not active)
CCN1CCN(c2nc(C)c3c(n2)CCCC3=O)CC1,AC50,Cytochrome P450 2C19,inconclusive
CCNc1ncc2nc(-c3ccc(F)cc3)c(=O)n(-c3ccccc3)c2n1,AC50,Cytochrome P450 1A2,0.398 µM (inconclusive)
COc1ccc(-n2cnc3sc(-c4ccccc4)cc3c2=O)cc1,AC50,Cytochrome P450 1A2,3.55 µM (inconclusive)
COC(=O)c1cc(Br)c(=O)n(CCc2ccc(O)cc2)c1,AC50,Cytochrome P450 1A2,10 µM (inconclusive)
O=C(NC1CCCCC1)c1ccc(COCC(F)(F)F)o1,AC50,Cytochrome P450 2C9,15.8 µM (inconclusive)
CC1(c2ccc(Cl)cc2)NC(=O)N(CC(=O)N2CCc3ccccc32)C1=O (stereo not given),EC50,[1],14.1 µM (active)
COc1cc(/N=C/c2c(O)oc3ccccc3c2=O)c(OC)cc1Cl,EC50,[2],> 300 µM (inconclusive)
same,EC50,[3],> 300 µM (inconclusive)
same,EC50,[1],> 53 µM (inactive)
Cc1cccc(N2C(=O)CS/C2=N\NC(=O)c2ccc(Br)cc2)c1C,EC50,[4],> 195 µM (not active)
CC(=N/O)/C(C)=N\NC(=O)c1ccccn1,EC50,[4],> 195 µM (not active)
COc1ccccc1NCC(=O)N/N=C/c1c(O)ccc2ccccc12,EC50,[2],> 300 µM (not active)
same,EC50,[3],> 150 µM (not active)
same,AC50,INS1,4.94 µM (active)
O=C(O)COc1ccc(/C=N/NC(=O)c2ccccc2Br)cc1,EC50,[4],> 195 µM (not active)
